# Data: patent US6737383B1, “Herbicidal oxadiazolidines” (priority 1999, dated 2004)
# Tests used:
# [1] = system: wheat; experiment: Test B pre/postemergence wheat; assay type: in vivo, Triticum aestivum; conditions: for Plant response rating, Wheat: Rate 250 g/ha
# How it was run: (§1)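 Herbicidal effect was estimated by eye on a ten-point control scale after plants spent twelve to sixteen days in a greenhouse following soil or foliar treatment. Foliar sprays targeted plants at one to four leaves; all doses were formulated in a non-phytotoxic solvent with surfactant.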
# [2] = system: corn; experiment: Test B pre/postemergence corn; assay type: in vivo, Zea mays
# How it was run: as §1
# [3] = system: cocklebur; experiment: Test B pre/postemergence cocklebur; assay type: in vivo, Xanthium strumarium
# How it was run: as §1
# [4] = system: soybean; experiment: Test B pre/postemergence soybean; assay type: in vivo, Glycine max
# How it was run: as §1
# [5] = system: purple nutsedge; experiment: Test B pre/postemergence purple nutsedge; assay type: in vivo, Cyperus rotundus
# How it was run: as §1
# [6] = system: duck salad; experiment: Test B flood test duck salad; assay type: in vivo, Heteranthera limosa
# How it was run: (§2)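 Plants were grown to the 2-leaf stage before treatment with test chemical, then held in a greenhouse for twelve to sixteen days. Injury was visually rated against untreated controls on a 0–10 scale, where 0 is no effect and 10 is complete control.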
# [7] = system: rape; experiment: Test B pre/postemergence rape; assay type: in vivo, Brassica napus
# How it was run: as §1
# [8] = system: wild oat; experiment: Test B pre/postemergence wild oat; assay type: in vivo, Avena fatua; conditions: for Plant response rating, Wild oats: Rate 250 g/ha
# How it was run: as §1
# [9] = system: surinam grass; experiment: Test B pre/postemergence surinam grass; assay type: in vivo, Brachiaria decumbens
# How it was run: as §1
# [10] = system: rice; experiment: Test B flood test rice; assay type: in vivo, Oryza sativa
# How it was run: as §2
# [11] = system: velvetleaf; experiment: Test B pre/postemergence velvetleaf; assay type: in vivo, Abutilon theophrasti; conditions: for Plant response rating, Velvetleaf: Rate 250 g/ha
# How it was run: as §1
# [12] = system: sugar beet; experiment: Test B pre/postemergence sugar beet; assay type: in vivo, Beta vulgaris; conditions: for Plant response rating, Sugarbeets: Rate 250 g/ha
# How it was run: as §1
# [13] = system: giant foxtail; experiment: Test B pre/postemergence giant foxtail; assay type: in vivo, Setaria faberii
# How it was run: as §1
# [14] = system: bedstraw; experiment: Test B pre/postemergence bedstraw; assay type: in vivo, Galium aparine
# How it was run: as §1
# [15] = system: smallflower flatsedge; experiment: Test B flood test smallflower flatsedge; assay type: in vivo, Cyperus difformis
# How it was run: as §2
# [16] = system: pigweed; experiment: Test B pre/postemergence pigweed; assay type: in vivo, Amaranthus retroflexus
# How it was run: as §1
# [17] = Postemergence, Rate 62 g/ha, scale 0 to 10, 0 is no effect, 10 is complete control
# [18] = Postemergence, Rate 125 g/ha, scale of 0 to 10 where 0 is no effect and 10 is complete control
# [19] = Preemergence, Rate 31 g/ha, visual rating, scale 0 to 10 (0 no effect, 10 complete control)
# [20] = Preemergence, Rate 62 g/ha, scale 0 to 10 (0 no effect, 10 complete control)
# [21] = Preemergence, Rate 125 g/ha, 0 is no effect, 10 is complete control
# [22] = Preemergence, scale of 0 to 10 where 0 is no effect and 10 is complete control
# [23] = Postemergence, scale 0 to 10, 0 is no effect, 10 is complete control
# [24] = Postemergence, Rate 250 g/ha, scale 0 to 10, 0 no effect, 10 complete control
# [25] = Preemergence, Rate 125 g/ha, scale 0 to 10 (0 no effect, 10 complete control)
# [26] = Preemergence, Rate 250 g/ha, scale of 0 to 10 where 0 is no effect and 10 is complete control
# [27] = Rate 31 g/ha, Postemergence, scale 0 to 10
# [28] = Rate 250 g/ha, Postemergence, scale 0 to 10, 0 is no effect, 10 is complete control
# [29] = Postemergence (flood test species), Rate 125 g/ha, scale of 0 to 10 where 0 is no effect and 10 is complete control
# [30] = Rate 31 g/ha, Postemergence section (flood test species), scale 0 to 10
# [31] = Rate 250 g/ha, Postemergence (flood test), scale 0 to 10, 0 is no effect, 10 is complete control
compound,measurement,setting,value
CC(C)N(C(=O)n1oc(=O)n(-c2cnn(C)c2)c1=O)c1ccc(F)cc1 [Compound 98],Wheat plant response rating,[1]; [17],0
same,Wheat plant response rating,[1]; [18],0
same,Wheat plant response rating,[1]; [19],0
same,Wheat plant response rating,[1]; [20],0
same,Wheat plant response rating (0 to 10 scale),[1]; [21],0
same,"Plant response rating, Wheat",[1]; [22],1
same,"Plant response rating, Wheat",[1]; [23],0
same,Corn plant response rating,[2]; [17],0
same,Corn plant response rating,[2]; [18],0
same,Corn plant response rating,[2]; [24],0
same,Corn plant response rating,[2]; [19],0
same,Corn plant response rating,[2]; [20],0
same,"Plant response rating, Corn",[2]; [25],0
same,"Plant response rating, Corn",[2]; [26],0
same,Corn plant response rating,[2]; [27],0
same,Cocklebur plant response rating,[3]; [17],0
same,Cocklebur plant response rating,[3]; [18],0
same,Cocklebur plant response rating,[3]; [24],0
same,Cocklebur plant response rating,[3]; [19],0
same,Cocklebur plant response rating,[3]; [20],0
same,"Plant response rating, Cocklebur",[3]; [25],0
same,"Plant response rating, Cocklebur",[3]; [26],0
same,Cocklebur plant response rating,[3]; [27],0
same,Soybean plant response rating,[4]; [17],1
same,Soybean plant response rating,[4]; [18],1
same,Soybean plant response rating,[4]; [19],0
same,Soybean plant response rating,[4]; [20],0
same,"Plant response rating, Soybean",[4]; [25],0
same,"Plant response rating, Soybean",[4]; [26],0
same,"Plant response rating, Soybean",[4]; [28],1
same,Nutsedge plant response rating,[5]; [17],0
same,Nutsedge plant response rating,[5]; [18],0
same,Nutsedge plant response rating,[5]; [24],0
same,Nutsedge plant response rating,[5]; [19],0
same,Nutsedge plant response rating,[5]; [20],0
same,"Plant response rating, Nutsedge",[5]; [25],0
same,"Plant response rating, Nutsedge",[5]; [26],0
same,Nutsedge plant response rating,[5]; [27],0
same,Ducksalad plant response rating,[6]; [29],2
same,Ducksalad plant response rating,[6]; [17],0
same,Ducksalad plant response rating,[6]; [30],0
same,Ducksalad plant response rating,"[6]; flood test, listed under Postemergence, Rate 250 g/ha, scale 0 to 10, 0 no effect, 10 complete control",3
same,Rape plant response rating,[7]; [17],0
same,Rape plant response rating,[7]; [18],0
same,Rape plant response rating,[7]; [24],0
same,Rape plant response rating,[7]; [19],0
same,Rape plant response rating,[7]; [20],0
same,"Plant response rating, Rape",[7]; [25],0
same,"Plant response rating, Rape",[7]; [26],0
same,Rape plant response rating,[7]; [27],0
same,Wild oats plant response rating,[8]; [17],0
same,Wild oats plant response rating,[8]; [18],0
same,Wild oats plant response rating,[8]; [19],0
same,Wild oats plant response rating,[8]; [20],0
same,Wild oats plant response rating (0 to 10 scale),[8]; [21],0
same,"Plant response rating, Wild oats",[8]; [22],2
same,"Plant response rating, Wild oats",[8]; [23],0
same,B. signalgrass plant response rating,[9]; [17],0
same,B. signalgrass plant response rating,[9]; [24],0
same,B. signalgrass plant response rating,[9]; [19],0
same,B. signalgrass plant response rating,[9]; [20],0
same,"Plant response rating, B. signalgrass",[9]; [25],0
same,"Plant response rating, B. signalgrass",[9]; [26],0
same,B. signalgrass plant response rating,[9]; [27],0
same,B. signalgrass plant response rating,"[9]; Rate 125 g/ha, Postemergence, scale 0 to 10, 0 no effect, 10 complete control",0
same,Rice plant response rating,[10]; [29],4
same,Rice plant response rating,[10]; [17],0
same,Rice plant response rating,[10]; [30],0
same,"Plant response rating, Rice",[10]; [31],6
same,Velvetleaf plant response rating,[11]; [17],0
same,Velvetleaf plant response rating,[11]; [18],0
same,Velvetleaf plant response rating,[11]; [19],0
same,Velvetleaf plant response rating,[11]; [20],0
same,Velvetleaf plant response rating (0 to 10 scale),[11]; [21],0
same,"Plant response rating, Velvetleaf",[11]; [22],2
same,"Plant response rating, Velvetleaf",[11]; [23],0
same,Sugarbeets plant response rating,[12]; [17],0
same,Sugarbeets plant response rating,[12]; [18],0
same,Sugarbeets plant response rating,[12]; [19],0
same,Sugarbeets plant response rating,[12]; [20],0
same,Sugarbeets plant response rating (0 to 10 scale),[12]; [21],0
same,"Plant response rating, Sugarbeets",[12]; [22],3
same,"Plant response rating, Sugarbeets",[12]; [23],0
same,Giant foxtail plant response rating,[13]; [17],0
same,Giant foxtail plant response rating,[13]; [18],0
same,Giant foxtail plant response rating,[13]; [24],2
same,Giant foxtail plant response rating,[13]; [19],4
same,Giant foxtail plant response rating,[13]; [20],5
same,"Plant response rating, Giant foxtail",[13]; [25],8
same,"Plant response rating, Giant foxtail",[13]; [26],10
same,Giant foxtail plant response rating,[13]; [27],0
same,Bedstraw plant response rating,[14]; [17],0
same,Bedstraw plant response rating,[14]; [19],0
same,Bedstraw plant response rating,[14]; [20],0
same,"Plant response rating, Bedstraw",[14]; [25],0
same,"Plant response rating, Bedstraw",[14]; [26],0
same,Bedstraw plant response rating,[14]; [27],0
same,S. Flatsedge plant response rating,[15]; [29],8
same,S. Flatsedge plant response rating,[15]; [17],0
same,"Plant response rating, S. Flatsedge",[15]; [31],8
same,Redroot pigweed plant response rating,[16]; [17],0
same,Redroot pigweed plant response rating,[16]; [18],0
same,Redroot pigweed plant response rating,[16]; [19],0
same,Redroot pigweed plant response rating,[16]; [20],4
same,"Plant response rating, Redroot pigweed",[16]; [25],4
same,"Plant response rating, Redroot pigweed",[16]; [26],5
same,Redroot pigweed plant response rating,[16]; [27],0
same,"Plant response rating, Redroot pigweed",[16]; [28],0
